Experiment in all cases: Chemokine induction in PBMC (capture ELISA)
Format in all cases: cell-based

The test system of experiment [1] is MCP-1 release by human PBMC. Conditions: background (204) subtracted. How it is done: FIG. 15. Induction of MCP-1 release by 7.5×10^5 human PBMC in response to treatment with 20 or 100 μg/ml of different peptides for 24 hours.
(§1) Venous blood (20 ml) from healthy volunteers was collected in Vacutainer® collection tubes containing sodium heparin as an anticoagulant (Becton Dickinson, Mississauga, ON) in accordance with UBC ethical approval and guidelines. Blood was diluted 1:1 with complete RPMI 1640 medium and separated by centrifugation over a Ficoll-Paque® Plus (Amersham Biosciences, Piscataway, N.J., USA) density gradient. White blood cells were isolated from the buffy coat, washed twice in RPMI 1640 complete medium, and the number of peripheral blood mononuclear cells (PBMC) was determined by trypan blue exclusion. PBMC (5×10^5) were seeded into 12-well tissue culture dishes (Falcon; Becton Dickinson) at 0.75 to 1×10^6 cells/ml at 37° C. in 5% CO2. The above conditions were chosen to mimic conditions for circulating blood monocytes entering tissues at the site of infection via extravasation.
(§2) Following incubation of the cells under various treatment regimens, the tissue culture supernatants were centrifuged at 1000×g for 5 min, then at 10,000×g for 2 min to obtain cell-free samples. Supernatants were aliquoted and then stored at −20° C. prior to assay for various chemokines by capture ELISA (eBioscience and BioSource International Inc., CA, USA respectively)

Experiment [2] has as its system MCP-3 release by human PBMC. The conditions noted are these: background (6) subtracted. As for the experimental part:
FIG. 16. Induction of MCP3 release by 7.5×10^5 human PBMC in response to treatment with 20 or 100 μg/ml of different peptides for 24 hours.
as §1, §2

The test system of experiment [3] is CXCL1 (Gro-α) release by human PBMC. Conditions: background (196) subtracted. As for the experimental part:
FIG. 17. Induction of CXCL1 (Gro-α) release by 7.5×10^5 human PBMC in response to treatment with 20 or 100 μg/ml of different peptides for 24 hours.
as §1, §2

No end group written: not given here.

Consider 1034 (KQFRNRLRIVKK) [compound 1034], for which the “Chemokine induction MCP-1” value in experiment [1] (20 μg/ml peptide) is 434 pg/mL; in experiment [1] (100 μg/ml peptide), 796 pg/mL. The “Chemokine induction MCP-3” value in experiment [2] (20 μg/ml peptide) stood at 0 pg/mL; in experiment [2] (100 μg/ml peptide), 4 pg/mL. Moreover, the “Chemokine induction Gro-α” value in experiment [3] (20 μg/ml peptide) turned out to be 60 pg/mL; in experiment [3] (100 μg/ml peptide), 61 pg/mL.
For the substance 1011 (RRWVVWRIVQRR) [compound 1011], the entries for the “Chemokine induction MCP-1” value in experiment [1] (20 μg/ml peptide) and in experiment [1] (100 μg/ml peptide) were 579 pg/mL and 2282 pg/mL, respectively. Besides, the figures for the “Chemokine induction MCP-3” value in experiment [2] (20 μg/ml peptide) and in experiment [2] (100 μg/ml peptide) were 1 pg/mL and 35 pg/mL, respectively. Also, the “Chemokine induction Gro-α” value in experiment [3] (20 μg/ml peptide) came to 46 pg/mL; in experiment [3] (100 μg/ml peptide) it was 308 pg/mL.
Regarding 1042 (IVWIWRR) [compound 1042], the results for the “Chemokine induction MCP-1” value in experiment [1] (20 μg/ml peptide) and in experiment [1] (100 μg/ml peptide) were -7 pg/mL and 12 pg/mL, respectively. Besides, the “Chemokine induction MCP-3” value in experiment [2] (20 μg/ml peptide) and in experiment [2] (100 μg/ml peptide) was 3 pg/mL in each case. Also, the “Chemokine induction Gro-α” value worked out at 44 pg/mL in experiment [3] (20 μg/ml peptide) and 9 pg/mL in experiment [3] (100 μg/ml peptide).
In the case of 1022 (LRIRVIVWR) [compound 1022], the “Chemokine induction MCP-1” value was 52 pg/mL in experiment [1] (20 μg/ml peptide) and 983 pg/mL in experiment [1] (100 μg/ml peptide). The “Chemokine induction MCP-3” value in experiment [2] (20 μg/ml peptide) turned out to be 0 pg/mL; in experiment [2] (100 μg/ml peptide), 1 pg/mL. For the same substance, the “Chemokine induction Gro-α” value was determined as 10 pg/mL in experiment [3] (20 μg/ml peptide) and 64 pg/mL in experiment [3] (100 μg/ml peptide).
For the substance 1044 (RRWIVWI) [compound 1044], the “Chemokine induction MCP-1” value in experiment [1] (20 μg/ml peptide) is 1561 pg/mL; in experiment [1] (100 μg/ml peptide), 5024 pg/mL. For the same substance, the “Chemokine induction MCP-3” value in experiment [2] (20 μg/ml peptide) is 115 pg/mL; in experiment [2] (100 μg/ml peptide), 261 pg/mL. The “Chemokine induction Gro-α” value in experiment [3] (20 μg/ml peptide) was 1963 pg/mL; in experiment [3] (100 μg/ml peptide), 1545 pg/mL.
As to 1016 (LRIRWIFKR) [compound 1016], the “Chemokine induction MCP-1” value was 269 pg/mL in experiment [1] (20 μg/ml peptide) and 819 pg/mL in experiment [1] (100 μg/ml peptide). In addition, the entries for the “Chemokine induction MCP-3” value in experiment [2] (20 μg/ml peptide) and in experiment [2] (100 μg/ml peptide) were 1 pg/mL and 27 pg/mL, respectively. Moreover, the entries for the “Chemokine induction Gro-α” value in experiment [3] (20 μg/ml peptide) and in experiment [3] (100 μg/ml peptide) were 26 pg/mL and 247 pg/mL, respectively.
As for 1004 (RFWKVRVKYIRF) [compound 1004], the “Chemokine induction MCP-1” value was 300 pg/mL in experiment [1] (20 μg/ml peptide) and 1680 pg/mL in experiment [1] (100 μg/ml peptide). For the same substance, the “Chemokine induction MCP-3” value in experiment [2] (20 μg/ml peptide) stood at 1 pg/mL; in experiment [2] (100 μg/ml peptide) it was 30 pg/mL. In addition, the entries for the “Chemokine induction Gro-α” value in experiment [3] (20 μg/ml peptide) and in experiment [3] (100 μg/ml peptide) were 55 pg/mL and 336 pg/mL, respectively.
For the substance 1025 (RRIVKKFQIVRR) [compound 1025], the “Chemokine induction MCP-1” value in experiment [1] (20 μg/ml peptide) amounted to 109 pg/mL; in experiment [1] (100 μg/ml peptide), 284 pg/mL. Besides, the entries for the “Chemokine induction MCP-3” value in experiment [2] (20 μg/ml peptide) and in experiment [2] (100 μg/ml peptide) were 1 pg/mL and 3 pg/mL, respectively. Besides, the “Chemokine induction Gro-α” value in experiment [3] (20 μg/ml peptide) was -3 pg/mL; in experiment [3] (100 μg/ml peptide), 32 pg/mL.
With WIVIWRR (WIVIWRR-NH2) [compound 1043], the figures for the “Chemokine induction MCP-1” value in experiment [1] (20 μg/ml peptide) and in experiment [1] (100 μg/ml peptide) were 98 pg/mL and 1998 pg/mL, respectively. In addition, the entries for the “Chemokine induction MCP-3” value in experiment [2] (20 μg/ml peptide) and in experiment [2] (100 μg/ml peptide) were 0 pg/mL and 21 pg/mL, respectively. The “Chemokine induction Gro-α” value in experiment [3] (20 μg/ml peptide) is 26 pg/mL; in experiment [3] (100 μg/ml peptide), 881 pg/mL.
Consider “VQLRIWVRR (VQLRIWVRR-NH2) [compound 1006]”, for which the “Chemokine induction MCP-1” value in experiment [1] (20 μg/ml peptide) is 392 pg/mL; in experiment [1] (100 μg/ml peptide), 3004 pg/mL. Further, the “Chemokine induction MCP-3” value is 0 pg/mL in experiment [2] (20 μg/ml peptide) and 58 pg/mL in experiment [2] (100 μg/ml peptide). Moreover, the figures for the “Chemokine induction Gro-α” value in experiment [3] (20 μg/ml peptide) and in experiment [3] (100 μg/ml peptide) were 65 pg/mL and 1245 pg/mL, respectively.
In the case of 1014 (RQVIVRRW) [compound 1014], the “Chemokine induction MCP-1” value in experiment [1] (20 μg/ml peptide) came to 83 pg/mL; in experiment [1] (100 μg/ml peptide) it was 175 pg/mL. Further, the entries for the “Chemokine induction MCP-3” value in experiment [2] (20 μg/ml peptide) and in experiment [2] (100 μg/ml peptide) were 0 pg/mL and 1 pg/mL, respectively. In addition, the figures for the “Chemokine induction Gro-α” value in experiment [3] (20 μg/ml peptide) and in experiment [3] (100 μg/ml peptide) were 6 pg/mL and 15 pg/mL, respectively.
With VIWIRWR (VIWIRWR-NH2) [compound 1041], the “Chemokine induction MCP-1” value in experiment [1] (20 μg/ml peptide) was 146 pg/mL; in experiment [1] (100 μg/ml peptide) it was 1218 pg/mL. In addition, the “Chemokine induction MCP-3” value was determined as 7 pg/mL in experiment [2] (20 μg/ml peptide) and 53 pg/mL in experiment [2] (100 μg/ml peptide). Besides, the “Chemokine induction Gro-α” value in experiment [3] (20 μg/ml peptide) stood at 110 pg/mL; in experiment [3] (100 μg/ml peptide), 450 pg/mL.
For 1029 (KQFRIRVRV) [compound 1029], the “Chemokine induction MCP-1” value in experiment [1] (20 μg/ml peptide) was determined as 296 pg/mL; in experiment [1] (100 μg/ml peptide), 205 pg/mL. In addition, the “Chemokine induction MCP-3” value in experiment [2] (20 μg/ml peptide) and in experiment [2] (100 μg/ml peptide) was 3 pg/mL each time. The “Chemokine induction Gro-α” value in experiment [3] (20 μg/ml peptide) stood at 49 pg/mL; in experiment [3] (100 μg/ml peptide), 60 pg/mL.
For the substance 1021 (VRLRIRVAV) [compound 1021], the entries for the “Chemokine induction MCP-1” value in experiment [1] (20 μg/ml peptide) and in experiment [1] (100 μg/ml peptide) were 158 pg/mL and 276 pg/mL, respectively. Also, the “Chemokine induction MCP-3” value in experiment [2] (20 μg/ml peptide) was 3 pg/mL; in experiment [2] (100 μg/ml peptide), 10 pg/mL. Moreover, the entries for the “Chemokine induction Gro-α” value in experiment [3] (20 μg/ml peptide) and in experiment [3] (100 μg/ml peptide) were 29 pg/mL and 112 pg/mL, respectively.
Regarding 1027 (KKQVSRVKVWRK) [compound 1027], the “Chemokine induction MCP-1” value in experiment [1] (20 μg/ml peptide) was 54 pg/mL; in experiment [1] (100 μg/ml peptide), 1466 pg/mL. The “Chemokine induction MCP-3” value is 0 pg/mL in experiment [2] (20 μg/ml peptide) and 14 pg/mL in experiment [2] (100 μg/ml peptide). Besides, the “Chemokine induction Gro-α” value amounted to 8 pg/mL in experiment [3] (20 μg/ml peptide) and 204 pg/mL in experiment [3] (100 μg/ml peptide).
For 1045 (RWWRIVI) [compound 1045], the “Chemokine induction MCP-1” value was -2 pg/mL in experiment [1] (20 μg/ml peptide) and 989 pg/mL in experiment [1] (100 μg/ml peptide). Besides, the “Chemokine induction MCP-3” value in experiment [2] (20 μg/ml peptide) was determined as 0 pg/mL; in experiment [2] (100 μg/ml peptide) it was 31 pg/mL. Further, the “Chemokine induction Gro-α” value in experiment [3] (20 μg/ml peptide) was found to be 13 pg/mL; in experiment [3] (100 μg/ml peptide) it was 435 pg/mL.
Take 1009 (AIRVVRARLVRR) [compound 1009]: the “Chemokine induction MCP-1” value turned out to be 634 pg/mL in experiment [1] (20 μg/ml peptide) and 1093 pg/mL in experiment [1] (100 μg/ml peptide). Besides, the “Chemokine induction MCP-3” value in experiment [2] (20 μg/ml peptide) and in experiment [2] (100 μg/ml peptide) was 6 pg/mL throughout. In addition, the “Chemokine induction Gro-α” value in experiment [3] (20 μg/ml peptide) was found to be 230 pg/mL; in experiment [3] (100 μg/ml peptide), 377 pg/mL.
1048 (IRWVIRW) [compound 1048]: the “Chemokine induction MCP-1” value in experiment [1] (20 μg/ml peptide) came to 96 pg/mL; in experiment [1] (100 μg/ml peptide), 38 pg/mL. Besides, the “Chemokine induction MCP-3” value in experiment [2] (20 μg/ml peptide) and in experiment [2] (100 μg/ml peptide) was 0 pg/mL each time. Besides, the “Chemokine induction Gro-α” value in experiment [3] (20 μg/ml peptide) is 7 pg/mL; in experiment [3] (100 μg/ml peptide) it was -11 pg/mL.
For 1007 (WNRVKWIRR) [compound 1007], the “Chemokine induction MCP-1” value in experiment [1] (20 μg/ml peptide) amounted to 103 pg/mL; in experiment [1] (100 μg/ml peptide) it was 247 pg/mL. Besides, the results for the “Chemokine induction MCP-3” value in experiment [2] (20 μg/ml peptide) and in experiment [2] (100 μg/ml peptide) were 7 pg/mL and 28 pg/mL, respectively. The “Chemokine induction Gro-α” value came out at 65 pg/mL in experiment [3] (20 μg/ml peptide) and 170 pg/mL in experiment [3] (100 μg/ml peptide).

These data come from patent publication US8343475B2, “Small cationic antimicrobial peptides” (priority 2006, dated 2013).
